Data on two molecules can be found in PMC8921064 (Archives of Toxicology, 2022).

Data set [1] has as its system Salmonella typhimurium TA100. As to the kind of experiment: Reverse mutation assay (Ames test), TA100. The settings on record: for Increase in the number of revertants compared to the concurrent solvent control: TA100, presence of 5% S9-mix, 10–100 µg; for Mutagenicity (conclusion): TA100, positive if more than twofold over control; for His + revertant colonies TA100 without S9-mix: mean ± SD of 3 plates. The protocol:
(§1) Six concentrations of each compound were tested in triplicate in the absence and presence of 5% (v/v) S9-mix prepared from the livers of Aroclor 1254 treated Sprague–Dawley rats. The S9-mix contained 4 mM NADP, 5.8 mM glucose-6-phosphate, 0.1 M sodium phosphate pH 7.4, 8 mM MgCl2, 33 mM KCl and 5% S9 homogenate. Fresh bacterial cultures were prepared overnight to reach 10^9 cells/ml. The following solutions were pre-incubated in a rotating incubator at 70 rpm and 37 °C, and contained either 0.5 ml S9-mix (in case of S9 presence) or 0.5 ml 0.1 M potassium phosphate pH 7.4 (in case of S9 absence), 0.1 ml of a fresh bacterial culture (10^9 cells/ml) of TA98 or TA100, and 10–100 µg test compound. Top agar was melted and heated to 45 °C. After preincubation, the substrate solutions were added to 3 ml of the molten top agar and mixed by vortexing and the top agar mixture was poured onto a minimal glucose agar plate. After solidification of the top agar, the plates were incubated at 37 °C for 48 h. The number of revertant colonies per plate was automatically counted with the Instem Sorcerer Colony Counter (Staffordshire, UK). In the absence of S9-mix, 2-nitrofluorene (NF) and methylmethanesulfonate (MMS) were tested as positive controls for incubations with TA98 and TA100, respectively. In the presence of S9-mix, 2-aminoanthracene (2AA) was tested as a positive control in both TA98 and TA100. DMSO was tested as a solvent control in both tester strains.
(In the Ames test, an excess of revertant colonies over the control signals mutagenicity.)

Data set [2] has as its system Salmonella typhimurium TA98. As to the kind of experiment: Reverse mutation assay (Ames test), TA98. To be noted: for Increase in the number of revertants compared to the concurrent solvent control: TA98, presence of 5% S9-mix, 10–100 µg; for Mutagenicity (conclusion): TA98, positive if more than threefold over control. The method, then:
as §1, with “and 10–100 µg test compound.” left out

Data set [3] has as its system rat liver microsomes (RLM). In words: Rat liver microsomal incubation, metabolite formation quantified by UPLC. The settings on record: RLM. The method, then: (§2) The incubation mixtures were prepared and incubated in glass vials to avoid plastic binding of the substrates. The glass vials were capped to prevent substrate loss due to volatility. After preincubation of the incubation mixture at 37 °C for 1 min, the enzymatic reaction was initiated by adding microsomes to the incubation mixture which was subsequently incubated at 37 °C for 20 min. The reaction was terminated by adding 100 µl ice-cold acetonitrile followed by vortexing. After 5 min centrifugation at 5000 rpm (4000 × g), 4 °C, the supernatant was collected for ultraperformance liquid chromatography (UPLC) analysis. […] Therefore, a diisopropylether (DIPE) extraction of the metabolites was performed after the reaction was stopped by the addition of 20 µl 10% HClO4. To this end, the incubation mixture (total volume of 220 µl) was extracted three times with 1 ml DIPE. Each time, the upper organic layer was collected and the DIPE was subsequently evaporated from the combined organic fractions with a gentle stream of nitrogen. The residues were dissolved in 100 µl methanol and analyzed by UPLC.
(§3) The metabolites formed were analyzed and quantified using an Acquity UPLC system equipped with a photodiode array (PDA) detector (Waters, Milford, MA). The metabolites and their parent compound were separated on a reverse phase Acquity UPLC® BEH C18 column ([…], 1.7 µm, Waters, Milford, MA) and detected at wavelengths ranging from 190 to 400 nm. Eluent A was nano-pure water containing 0.1% trifluoroacetic acid (v/v), and eluent B was acetonitrile containing 0.1% trifluoroacetic acid (v/v). The gradient elution started from 90% A and 10% B applied from 0.0 min to 0.5 min, which was changed to 0% A and 100% B from 0.5 to 15.5 min and then kept at 0% A and 100% B from 15.5 min to 18.5 min, changed back to 90% A and 10% B from 18.5 to 18.6 min and then maintained at the starting conditions from 18.6 min until 22 min. The total run time was 22 min using a flow rate of 0.6 ml/min. The temperature of the column was set at 40 °C and that of the autosampler at 10 °C during the UPLC analysis. The injection volume was 3.5 µl. Metabolites were quantified using their peak area at the wavelength specified in Table 1, using calibration curves of available reference compounds. Metabolites were identified by comparing their retention time (RT) and UV spectrum to those of reference chemicals on UPLC. When reference chemicals were not available, metabolite identification by gas chromatography-triple quadrupole mass spectrometry (GC–MS/MS) was performed. The minor metabolites were identified by elution time and mass spectra both on UPLC and GC–MS/MS, and by comparison with available elution and spectral information from the literature.
(§4) The metabolite concentrations in the microsomal incubation mixtures as quantified by UPLC were used to calculate the rate of the enzymatic conversions in pmol/min/mg microsomal protein. The kinetic parameters KM and Vmax were obtained using a nonlinear regression curve fit applying the Michaelis Menten equation in GraphPad Prism 5 (San Diego, USA). To compare the catalytic efficiency of formation of the different metabolites the intrinsic clearance (Clint) was calculated as Vmax divided by KM.

Another data set has as its system mouse skin. Further details: method as in Buening et al. [1979]; LaVoie et al. [1981]. The settings on record: mouse skin painting; ref Buening et al. [1979]; LaVoie et al. [1981]; cited from earlier work.
In another data set the test system is S. typhimurium TA98. To be noted: cited from earlier work.
The test system of a further data set is S. typhimurium TA100. The settings on record: cited from earlier work.
For data set [4], the system named is human liver microsomes (HLM). As to the kind of experiment: Human liver microsomal incubation, metabolite formation quantified by UPLC. The settings on record: HLM. The method, then: as §2, §3, §4
In general terms: Liver microsomes are vesicles of endoplasmic reticulum, rich in cytochrome P450 enzymes.

Setting [5] is: ref Katarzyna Rudnicka et al. [2013].

SMILES strings stand for the structures. Read-outs that look alike come from different tables or passages of the source. A value given as a limit tells only on which side of the number the result lay.

Regarding `Cc1cccc2c1ccc1ccccc12` [1-Methylphenanthrene], in data set [1], the “Increase in the number of revertants compared to the concurrent solvent control” value (from here on “Increase … to the concurrent solvent control”) was at most 6.8 fold and the “Mutagenicity (conclusion)” value is “showed mutagenicity”. In data set [2], the “Increase … to the concurrent solvent control” value is “up to 13 fold” and the “Mutagenicity (conclusion)” value is listed as “showed mutagenicity”. For the same molecule, in data set [3] (substrate 1-Methylphenanthrene), the “Vmax, formation of 1-(Hydroxymethyl) phennathrene RT = 5.55 min” value is listed as 1926 ± 40.3 pmol/min/mg microsomal protein; the “Vmax, formation of 1-Methylphenanthrol RT = 6.80 min” value is listed as 33.1 ± 2.1 pmol/min/mg microsomal protein; the “Vmax, formation of 1-Methylphenanthrol RT = 6.92 min” value is 24.0 ± 1.6 pmol/min/mg microsomal protein; the “Vmax, formation of 1-Methylphenanthrol RT = 7.00 min” value was 17.3 ± 1.2 pmol/min/mg microsomal protein. In data set [3] (substrate 1-Methylphenanthrene), the “Vmax, formation of 1-Methylphenanthrol RT = 7.29 min” value is on record as 9.0 ± 0.8 pmol/min/mg microsomal protein; the “Vmax, formation of Dihydro-1-methylphenanthrene-diol RT = 3.43 min” value is recorded as 4.2 ± 0.4 pmol/min/mg microsomal protein; the “Vmax, formation of Dihydro-1-methylphenanthrene-diol RT = 3.96 min” value is reported as 5.2 ± 0.3 pmol/min/mg microsomal protein; the “Vmax, formation of Dihydro-1-methylphenanthrene-diol RT = 4.35 min” value was 16.1 ± 1.3 pmol/min/mg microsomal protein. Moreover, in data set [3] (substrate 1-Methylphenanthrene), the “Vmax, formation of Dihydro-1-methylphenanthrene-diol RT = 4.76 min” value is 14.0 ± 0.6 pmol/min/mg microsomal protein. The Tumor-initiating activity entry in the data set on mouse skin is reported as “neither phenanthrene nor its monomethylated analogs”. Besides, in the data set with S. typhimurium TA98 (setting [5]), the Increase in revertants is listed as 8.4 fold. For the same molecule, the Increase in revertants with S. typhimurium TA98 (ref LaVoie et al. [1983]) is 3.2 fold. The Increase in revertants in the data set with S. typhimurium TA100 (setting [5]) is 4.1 fold. In addition, the Increase in revertants in the data set on S. typhimurium TA100 (ref LaVoie et al. [1983]) is given as 6.0 fold. Moreover, in data set [4] (substrate 1-Methylphenanthrene), the “Vmax, formation of 1-(Hydroxymethyl) phennathrene RT = 5.55 min” value was 475.3 ± 13.2 pmol/min/mg microsomal protein; the “Vmax, formation of 1-Methylphenanthrol RT = 6.3 min” value is 14.7 ± 0.8 pmol/min/mg microsomal protein; the “Vmax, formation of 1-Methylphenanthrol RT = 6.80 min” value is 77.3 ± 3.9 pmol/min/mg microsomal protein; the “Vmax, formation of Dihydro-1-methylphenanthrene-diol RT = 2.32 min” value is 27.5 ± 4.6 pmol/min/mg microsomal protein. Further, the “Vmax, formation of Dihydro-1-methylphenanthrene-diol RT = 4.35 min” value in data set [4] (substrate 1-Methylphenanthrene) is listed as 20.6 ± 0.5 pmol/min/mg microsomal protein.

For the molecule `Cc1cc2ccccc2c2ccccc12` [9-Methylphenanthrene], the “His + revertant colonies TA100 without S9-mix” value in data set [1] (2 µg/plate) turned out to be 121±7. Moreover, the “His + revertant colonies TA100 without S9-mix” value in data set [1] (4 µg/plate) is on record as 109±3. The “His + revertant colonies TA100 without S9-mix” value in data set [1] (10 µg/plate) amounted to 105±11. Besides, the “His + revertant colonies TA100 without S9-mix” value in data set [1] (20 µg/plate) worked out at 97±20. Besides, the “His + revertant colonies TA100 without S9-mix” value in data set [1] (40 µg/plate) is 59±40. For the same molecule, in data set [1] (TA100, absence of S9 mix), the “Cytotoxicity at the test doses” value is on record as “showed cytotoxicity”. In data set [1], the “Increase … to the concurrent solvent control” value is recorded as 1.9 fold and the “Mutagenicity (conclusion)” value is “indicative of mutagenicity”. Further, the “Increase in the number of revertants relative to the historical control data” value in data set [1] (TA100, presence of S9-mix) is given as 2.0 fold. Also, in data set [2], the “Increase … to the concurrent solvent control” value came to 2.5 fold and the “Mutagenicity (conclusion)” value is “indicative of mutagenicity”. The “Increase in the number of revertants relative to the historical control data” value in data set [2] (TA98, presence of S9-mix) came to 3.2 fold. In data set [3] (substrate 9-Methylphenanthrene), the “Vmax, formation of 9-(Hydroxymethyl)-phenanthrene RT = 5.6 min” value was 1543 ± 226.6 pmol/min/mg microsomal protein; the “Vmax, formation of 9-Methylphenanthrol RT = 6.73 min” value was 27.2 ± 5.1 pmol/min/mg microsomal protein; the “Vmax, formation of 9-Methylphenanthrol RT = 6.87 min” value is on record as 124.2 ± 29.2 pmol/min/mg microsomal protein; the “Vmax, formation of 9-Methylphenanthrol RT = 7.2 min” value is reported as 41.4 ± 23.4 pmol/min/mg microsomal protein. Moreover, the “Vmax, formation of 9-Methylphenanthrol RT = 7.25 min” value in data set [3] (substrate 9-Methylphenanthrene) is listed as 10.2 ± 1.9 pmol/min/mg microsomal protein. In the data set on mouse skin, the Tumor-initiating activity result is reported as “neither phenanthrene nor its monomethylated analogs”. The Increase in revertants with S. typhimurium TA98 (ref LaVoie et al. [1983]) is 1.3 fold. In addition, in the data set with S. typhimurium TA100 (ref LaVoie et al. [1983]), the Increase in revertants is 3.0 fold. In addition, in data set [4] (substrate 9-Methylphenanthrene), the “Vmax, formation of 1,2-Dihydro-9-methylphenanthrene-diol RT = 4.27 min” value is 15.6 ± 2.4 pmol/min/mg microsomal protein; the “Vmax, formation of 3,4-Dihydro-9-methylphenanthrene-diol RT = 2.98 min” value is given as 26.1 ± 3.0 pmol/min/mg microsomal protein; the “Vmax, formation of 9-(Hydroxymethyl)-phenanthrene RT = 5.6 min” value is 415.9 ± 43.9 pmol/min/mg microsomal protein; the “Vmax, formation of 9-Methylphenanthrol RT = 6.28 min” value is given as 27.8 ± 6.7 pmol/min/mg microsomal protein. For the same molecule, the “Vmax, formation of 9-Methylphenanthrol RT = 6.73 min” value in data set [4] (substrate 9-Methylphenanthrene) is 44.9 ± 19.4 pmol/min/mg microsomal protein.
